Literature values, collected in patent US20210251944A1, “METHODS FOR TREATING A CANCER RESISTANT TO AT LEAST ONE TYROSINE KINASE INHIBITOR” (Del Mar Pharmaceuticals (BC) Ltd., priority 2012, published 2021).
Like-named read-outs stand apart in the source and are kept apart here.

Tests used:
[1] = cited from earlier work
[2] = target: glycogen synthase kinase-3β (GSK-3β) (Homo sapiens, UniProt P49841); conditions: cited from earlier work
CML = conditions: cited from earlier work; for rate of incomplete cytogenetic responses to imatinib: CML

glycogen synthase kinase-3β (GSK-3β), sequence (P49841 whole entry, species assumed): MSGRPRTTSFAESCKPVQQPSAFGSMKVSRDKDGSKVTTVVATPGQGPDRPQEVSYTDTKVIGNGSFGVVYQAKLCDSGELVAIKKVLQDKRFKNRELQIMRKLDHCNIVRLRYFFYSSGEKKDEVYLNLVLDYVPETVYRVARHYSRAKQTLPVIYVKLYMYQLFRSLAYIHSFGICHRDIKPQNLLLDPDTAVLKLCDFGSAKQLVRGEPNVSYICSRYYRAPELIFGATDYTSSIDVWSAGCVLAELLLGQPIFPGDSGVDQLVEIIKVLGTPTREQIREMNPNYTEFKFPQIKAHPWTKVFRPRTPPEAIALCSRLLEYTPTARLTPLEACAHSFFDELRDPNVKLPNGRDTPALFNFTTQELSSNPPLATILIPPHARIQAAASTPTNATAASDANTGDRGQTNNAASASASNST

## O[C@H]([C@H](O)[C@@H](O)CBr)[C@H](O)CBr [Dibromodulcitol, dibromodulcitol]
[1]
  absorption by the oral route: rapid and fairly complete

## CN1C(=O)/C(=C2/C(=O)Nc3ccccc32)c2ccccc21 [Meisoindigo, meisoindigo]
[2]
  concentration for inhibition of glycogen synthase kinase-3β (GSK-3β): 5 to 50 nM

## Cc1ccc(NC(=O)c2ccc(CN3CCN(C)CC3)cc2)cc1Nc1nccc(-c2cccnc2)n1 [imatinib]
CML; individuals in East Asia
  rate of incomplete cytogenetic responses to imatinib: ~50%
CML; individuals in Europe and North America
  rate of incomplete cytogenetic responses to imatinib: 26%
CML; chronic phase CML, first-line imatinib 400 mg/day, ELN criteria
  overall odds ratio for resistant disease, patients with the BIM deletion polymorphism compared to those without: 2.94
